Literature values in patent US20040204467A1, “Use of 5HT3-receptor-antagonists” (priority 1998, published 2004).

What was measured:
CFS patients = conditions: daily dose of 20 mg; also in patients with accompanying symptoms of depression
patients with CFS = conditions: after an acute application on patients with CFS

## CNCCC(Oc1ccc(C(F)(F)F)cc1)c1ccccc1 (centres unmarked) [fluoxetin]
CFS patients
  result of treatment of CFS: negative in result

## CCN[C@@H](C)Cc1cccc(C(F)(F)F)c1 [D-Feufluoroamin]
Patients with CFS
  rise of prolactin in the serum: significantly increased rise of prolactin
